Assay results as given in the NIST ThermoML archive (doi:10.1016/j.jct.2016.10.033).
Numbers after ± are expanded uncertainties.

Assay: refractive index (Na D-line) (dimensionless); xn = mol fraction of the nth substance listed
Settings: 103 kPa, Liquid, Standard Abbe refractometry

CO[Si](C)(C)OC [dimethoxydimethylsilane] + CO[Si](C)(OC)c1ccccc1
refractive index
Settings | 298.15 K | 303.15 K | 308.15 K | 313.15 K | 318.15 K
x2 = 0 | 1.36816 ± 0.004 | 1.36559 ± 0.004 | 1.36297 ± 0.004 | 1.36035 ± 0.004 | 1.35771 ± 0.004
x2 = 0.0501 | 1.37551 ± 0.004 | 1.37295 ± 0.004 | 1.37035 ± 0.004 | 1.36774 ± 0.004 | 1.36513 ± 0.004
x2 = 0.1001 | 1.3826 ± 0.004 | 1.38005 ± 0.004 | 1.37748 ± 0.004 | 1.37492 ± 0.004 | 1.37233 ± 0.004
x2 = 0.15 | 1.38945 ± 0.004 | 1.38696 ± 0.004 | 1.38442 ± 0.004 | 1.3819 ± 0.004 | 1.37936 ± 0.004
x2 = 0.2 | 1.3961 ± 0.004 | 1.39364 ± 0.004 | 1.39111 ± 0.004 | 1.38864 ± 0.004 | 1.38612 ± 0.004
x2 = 0.25 | 1.40247 ± 0.004 | 1.40001 ± 0.004 | 1.39748 ± 0.004 | 1.39498 ± 0.004 | 1.39248 ± 0.004
x2 = 0.2999 | 1.40864 ± 0.004 | 1.40619 ± 0.004 | 1.40369 ± 0.004 | 1.40119 ± 0.004 | 1.3987 ± 0.004
x2 = 0.3499 | 1.41459 ± 0.004 | 1.41213 ± 0.004 | 1.40966 ± 0.004 | 1.40726 ± 0.004 | 1.4048 ± 0.004
x2 = 0.4001 | 1.42041 ± 0.004 | 1.41798 ± 0.004 | 1.41551 ± 0.004 | 1.41306 ± 0.004 | 1.41059 ± 0.004
x2 = 0.4501 | 1.42603 ± 0.004 | 1.42366 ± 0.004 | 1.42126 ± 0.004 | 1.41886 ± 0.004 | 1.41642 ± 0.004
x2 = 0.5001 | 1.43147 ± 0.004 | 1.42909 ± 0.004 | 1.42667 ± 0.004 | 1.42426 ± 0.004 | 1.42184 ± 0.004
x2 = 0.55 | 1.43672 ± 0.004 | 1.43435 ± 0.004 | 1.43195 ± 0.004 | 1.42958 ± 0.004 | 1.42718 ± 0.004
x2 = 0.6 | 1.44182 ± 0.004 | 1.43946 ± 0.004 | 1.43707 ± 0.004 | 1.43469 ± 0.004 | 1.43232 ± 0.004
x2 = 0.6499 | 1.44673 ± 0.004 | 1.44437 ± 0.004 | 1.44197 ± 0.004 | 1.43957 ± 0.004 | 1.43718 ± 0.004
x2 = 0.6999 | 1.45155 ± 0.004 | 1.4492 ± 0.004 | 1.44681 ± 0.004 | 1.44442 ± 0.004 | 1.44204 ± 0.004
x2 = 0.75 | 1.45621 ± 0.004 | 1.45386 ± 0.004 | 1.45148 ± 0.004 | 1.44913 ± 0.004 | 1.44677 ± 0.004
x2 = 0.7997 | 1.46072 ± 0.004 | 1.45837 ± 0.004 | 1.456 ± 0.004 | 1.45364 ± 0.004 | 1.45125 ± 0.004
x2 = 0.8499 | 1.46514 ± 0.004 | 1.46278 ± 0.004 | 1.46042 ± 0.004 | 1.45805 ± 0.004 | 1.45569 ± 0.004
x2 = 0.8999 | 1.46939 ± 0.004 | 1.46704 ± 0.004 | 1.46469 ± 0.004 | 1.46234 ± 0.004 | 1.45999 ± 0.004
x2 = 0.95 | 1.47356 ± 0.004 | 1.47121 ± 0.004 | 1.46886 ± 0.004 | 1.46651 ± 0.004 | 1.46417 ± 0.004

CCO[Si](C)(C)OCC [dimethyldiethoxysilane] + CO[Si](C)(OC)c1ccccc1
refractive index
Settings | 298.15 K | 303.15 K | 308.15 K | 313.15 K | 318.15 K
x2 = 0 | 1.38045 ± 0.004 | 1.37791 ± 0.004 | 1.37532 ± 0.004 | 1.37275 ± 0.004 | 1.37015 ± 0.004
x2 = 0.05 | 1.38569 ± 0.004 | 1.38315 ± 0.004 | 1.38057 ± 0.004 | 1.37799 ± 0.004 | 1.37541 ± 0.004
x2 = 0.1001 | 1.39089 ± 0.004 | 1.38836 ± 0.004 | 1.38582 ± 0.004 | 1.38325 ± 0.004 | 1.38071 ± 0.004
x2 = 0.1499 | 1.39601 ± 0.004 | 1.39351 ± 0.004 | 1.39097 ± 0.004 | 1.38844 ± 0.004 | 1.38592 ± 0.004
x2 = 0.2002 | 1.40114 ± 0.004 | 1.39865 ± 0.004 | 1.39614 ± 0.004 | 1.39362 ± 0.004 | 1.39108 ± 0.004
x2 = 0.2501 | 1.40622 ± 0.004 | 1.40372 ± 0.004 | 1.40124 ± 0.004 | 1.39874 ± 0.004 | 1.39625 ± 0.004
x2 = 0.3001 | 1.41123 ± 0.004 | 1.40874 ± 0.004 | 1.40626 ± 0.004 | 1.40376 ± 0.004 | 1.40129 ± 0.004
x2 = 0.3499 | 1.41623 ± 0.004 | 1.41376 ± 0.004 | 1.41131 ± 0.004 | 1.40883 ± 0.004 | 1.4064 ± 0.004
x2 = 0.4 | 1.42117 ± 0.004 | 1.41873 ± 0.004 | 1.41626 ± 0.004 | 1.41378 ± 0.004 | 1.41133 ± 0.004
x2 = 0.4499 | 1.42609 ± 0.004 | 1.42366 ± 0.004 | 1.42126 ± 0.004 | 1.41881 ± 0.004 | 1.41639 ± 0.004
x2 = 0.5 | 1.43096 ± 0.004 | 1.42854 ± 0.004 | 1.42613 ± 0.004 | 1.42369 ± 0.004 | 1.42133 ± 0.004
x2 = 0.55 | 1.43582 ± 0.004 | 1.4334 ± 0.004 | 1.43098 ± 0.004 | 1.42856 ± 0.004 | 1.42618 ± 0.004
x2 = 0.5999 | 1.44058 ± 0.004 | 1.43819 ± 0.004 | 1.43579 ± 0.004 | 1.43336 ± 0.004 | 1.43098 ± 0.004
x2 = 0.65 | 1.44535 ± 0.004 | 1.44296 ± 0.004 | 1.44058 ± 0.004 | 1.43819 ± 0.004 | 1.43582 ± 0.004
x2 = 0.6999 | 1.45008 ± 0.004 | 1.4477 ± 0.004 | 1.44531 ± 0.004 | 1.4429 ± 0.004 | 1.44055 ± 0.004
x2 = 0.75 | 1.45489 ± 0.004 | 1.45239 ± 0.004 | 1.45002 ± 0.004 | 1.44764 ± 0.004 | 1.44527 ± 0.004
x2 = 0.8 | 1.4594 ± 0.004 | 1.45703 ± 0.004 | 1.45464 ± 0.004 | 1.45227 ± 0.004 | 1.44991 ± 0.004
x2 = 0.8498 | 1.464 ± 0.004 | 1.46165 ± 0.004 | 1.45929 ± 0.004 | 1.45692 ± 0.004 | 1.45455 ± 0.004
x2 = 0.9 | 1.46859 ± 0.004 | 1.46623 ± 0.004 | 1.46388 ± 0.004 | 1.46153 ± 0.004 | 1.45918 ± 0.004
x2 = 0.95 | 1.47312 ± 0.004 | 1.47078 ± 0.004 | 1.46843 ± 0.004 | 1.46607 ± 0.004 | 1.46372 ± 0.004

C=C[Si](C)(OCC)OCC [methylvinyldiethoxysilane] + CO[Si](C)(OC)c1ccccc1
refractive index
Settings | 298.15 K | 303.15 K | 308.15 K | 313.15 K | 318.15 K
x2 = 0 | 1.39751 ± 0.004 | 1.39501 ± 0.004 | 1.39249 ± 0.004 | 1.38997 ± 0.004 | 1.38742 ± 0.004
x2 = 0.05 | 1.40161 ± 0.004 | 1.39911 ± 0.004 | 1.3966 ± 0.004 | 1.39407 ± 0.004 | 1.39153 ± 0.004
x2 = 0.1001 | 1.40569 ± 0.004 | 1.40322 ± 0.004 | 1.40071 ± 0.004 | 1.39819 ± 0.004 | 1.39567 ± 0.004
x2 = 0.1499 | 1.40975 ± 0.004 | 1.40729 ± 0.004 | 1.40481 ± 0.004 | 1.4023 ± 0.004 | 1.39979 ± 0.004
x2 = 0.2001 | 1.41382 ± 0.004 | 1.41135 ± 0.004 | 1.40888 ± 0.004 | 1.40639 ± 0.004 | 1.40391 ± 0.004
x2 = 0.2501 | 1.41792 ± 0.004 | 1.41547 ± 0.004 | 1.413 ± 0.004 | 1.41052 ± 0.004 | 1.40804 ± 0.004
x2 = 0.3 | 1.42192 ± 0.004 | 1.41948 ± 0.004 | 1.41702 ± 0.004 | 1.41456 ± 0.004 | 1.41207 ± 0.004
x2 = 0.3499 | 1.42595 ± 0.004 | 1.42352 ± 0.004 | 1.42108 ± 0.004 | 1.41864 ± 0.004 | 1.41615 ± 0.004
x2 = 0.4 | 1.42999 ± 0.004 | 1.42755 ± 0.004 | 1.42511 ± 0.004 | 1.42265 ± 0.004 | 1.4202 ± 0.004
x2 = 0.4501 | 1.43404 ± 0.004 | 1.43161 ± 0.004 | 1.42919 ± 0.004 | 1.42673 ± 0.004 | 1.4243 ± 0.004
x2 = 0.5 | 1.43801 ± 0.004 | 1.43558 ± 0.004 | 1.43316 ± 0.004 | 1.43072 ± 0.004 | 1.42827 ± 0.004
x2 = 0.5499 | 1.44203 ± 0.004 | 1.43961 ± 0.004 | 1.43721 ± 0.004 | 1.43477 ± 0.004 | 1.43237 ± 0.004
x2 = 0.6 | 1.44606 ± 0.004 | 1.44365 ± 0.004 | 1.44126 ± 0.004 | 1.43884 ± 0.004 | 1.43645 ± 0.004
x2 = 0.65 | 1.44994 ± 0.004 | 1.44754 ± 0.004 | 1.44513 ± 0.004 | 1.44272 ± 0.004 | 1.4403 ± 0.004
x2 = 0.6999 | 1.45398 ± 0.004 | 1.45159 ± 0.004 | 1.44922 ± 0.004 | 1.44683 ± 0.004 | 1.44442 ± 0.004
x2 = 0.75 | 1.45797 ± 0.004 | 1.45558 ± 0.004 | 1.45323 ± 0.004 | 1.45086 ± 0.004 | 1.44847 ± 0.004
x2 = 0.7999 | 1.46196 ± 0.004 | 1.45958 ± 0.004 | 1.45722 ± 0.004 | 1.45484 ± 0.004 | 1.45248 ± 0.004
x2 = 0.85 | 1.46589 ± 0.004 | 1.46352 ± 0.004 | 1.46116 ± 0.004 | 1.45878 ± 0.004 | 1.45641 ± 0.004
x2 = 0.8998 | 1.46999 ± 0.004 | 1.46763 ± 0.004 | 1.46528 ± 0.004 | 1.4629 ± 0.004 | 1.46054 ± 0.004
x2 = 0.9499 | 1.47377 ± 0.004 | 1.47142 ± 0.004 | 1.46907 ± 0.004 | 1.46672 ± 0.004 | 1.46435 ± 0.004
